Measurements: patent US4882171A, “Vanadium-peroxide compositions as insulin mimickers” (priority 1986, dated 1989)

How the values were obtained:
[1] = test system: 125I-IGF-2 binding, rat adipocytes; test: IGF-2 binding to rat adipocytes (Example 1, Table 1); assay type: cell-based; conditions: insulin 10 ng/ml, vanadate 1 mM and/or H2O2 1 mM, 15 min preincubation at 37° C.; control = 125I-IGF-2 alone
[2] = test system: 125I-IGF-II binding, rat adipocytes; test: Binding of labelled IGF-II to rat adipocytes, vanadate dose response (Example 2, FIG. 2); assay type: cell-based; conditions: vanadate alone; % of that seen with maximal doses of insulin
Procedure: Determination of ^125 I-IGF-II binding (shown in FIG. 2) is achieved by incubating adipocytes with vanadate (white circles on Figure); hydrogen peroxide (1mM) plus vanadate (black circles); and insulin (black squares) for 15 minutes at 37 C. Each value shown is the mean ± S.E. (Standard Error) of three separate experiments.

[3] = test system: insulin receptor tyrosine kinase; test: Insulin receptor tyrosine kinase activation in adipocytes, 32P incorporation into poly (Glu, Tyr) (Example 3, FIG. 3); assay type: cell-based, rat
[4] = test system: rat adipocytes (lipogenesis); test: Lipogenesis in rat adipocytes (Example 4); assay type: cell-based; conditions: 10^-7 M vanadate with H2O2 10^-3 M equals vanadate alone at 10^-4 M
[5] = test system: rat adipocytes (lipolysis); test: Lipolysis in rat adipocytes (Example 4); assay type: cell-based; conditions: vanadate with H2O2 10^-3 M, or vanadate alone
[6] = test system: adipocytes (protein synthesis); test: Protein synthesis in adipocytes, 3H-leucine incorporation (Example 5, Table 2); assay type: cell-based
Procedure: Adipocytes were isolated by collagenase digestion and protein synthesis was assessed by the incorporation 3,4,5-^3 H-leucine (0.5 uCi/ml) over 1 h at 37° C. into trichloroacetic acid (10%) precipitable material.
This was followed by a 1 h incubation with radiolabelled leucine. The reaction was terminated by the addition of cold TCA and centrifugation. The pellet was counted in a beta counter.

[7] = Blood glucose in live rats after jugular vein injection (Example 6A); assay type: in vivo, rat; conditions: 0.2 to 0.4 ml of 1 mM solution, 200 g rats
Procedure: In live rat studies vanadate (sodium salt) and the reaction mixture (phosphate-buffered saline containing vanadate and H2 O2 at neutral pH) was injected into 200 g rats via the internal jugular vein. […] This decrease was short-lived.

[8] = Blood sugar in intact rats after jugular vein injection (Example 6B); assay type: in vivo, rat (male Sprague-Dawley); conditions: 0.5 ml of 2 mM vanadate
Procedure: Solutions were injected into the jugular vein and blood samples were removed for determination of blood sugar by a standard glucose oxidase procedure.

[9] = test system: 125I-IGF-2 cell surface binding, fat cell; conditions: vanadate alone; cited from earlier work
diabetic rats = conditions: drinking water; cited from earlier work

Compound | IGF-2 binding, % of control [1] | maximal effect relative to maximal doses of insulin (IGF-II binding) [2] | augmentation of kinase activity over control ([3]; 10^-3 M alone) | vanadate concentration giving equal augmentation of lipogenesis [4] | vanadate concentration inhibiting lipolysis maximally [5] | Leucine Incorp (% of control ± S.E.) ([6]; 2 uM, 2 h at 37° C., then 1 h radiolabelled leucine, n=2) | Leucine Incorp (% of control ± S.E.) ([6]; 10 uM, 2 h at 37° C., then 1 h radiolabelled leucine, n=6) | Leucine Incorp (% of control ± S.E.) ([6]; 50 uM, 2 h at 37° C., then 1 h radiolabelled leucine, n=5) | Leucine Incorp (% of control ± S.E.) ([6]; 100 uM (H2O2 concentration), 2 h at 37° C., then 1 h radiolabelled leucine, n=4-5) | stimulation of leucine incorporation (in words) ([6]; vanadate alone, 2-100 uM) | effect on blood glucose (in words) [7] | effect in lowering blood sugar (in words) [8] | insulin mimicking action (in words) [9] | effect on blood glucose (in words) (diabetic rats) | effect on cardiac performance (in words) (diabetic rats) | augmentation of kinase activity over control ([3]; insulin 10 ng/ml alone) | activity at 100 µM ([6]; Adipocyte, 100 uM (H2O2 concentration), 2 h at 37° C., then 1 h radiolabelled leucine, n=4-5, read-out: Leucine Incorp (% of control ± S.E.))
[O]=[V]([O-])([O-])[O-] [Vanadate, vanadate] | 172 ± 10 % of control | about 60% | 32% | 10^-4 M | 10^-3 M | 101 ± 5.0 % of control | 104 ± 3.5 % of control | 105 ± 6.0 % of control | 107 ± 8.0 % of control | does not significantly stimulate leucine incorporation | no effect | no effect at all | weak mimicker of insulin action | lower blood glucose | improve cardiac performance | – | –
Insulin: insulin | – | – | – | – | – | – | – | – | – | – | – | – | – | – | – | 349% | –
OO [H2 O2, hydrogen peroxide] | 138 ± 12 % of control | – | – | – | – | – | – | – | – | – | – | – | – | – | – | – | 105 ± 4.7%
